Patent publication US20230148214A1, “INDAZOLES AND AZAINDAZOLES AS LRRK2 INHIBITORS” (ESCAPE Bio, Inc., priority 2020, published 2023)

Experiments:
LRRK2 G2019S = target: T1, LRRK2 G2019S (Homo sapiens, UniProt Q5S007, G2019S); test: LRRK2 Kinase Activity Assay (LanthaScreen TR-FRET), G2019S; assay type: biochemical; details: recombinant G2019S-LRRK2, 25 μM ATP, 400 nM LRRKtide, 60 min; class symbols
T1 construct: purchased Life Technologies PV4881
Method in brief: (§1)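 IC50 fitted to the compound-dependent loss of TR-FRET signal. Each kinase form, wild type or G2019S, phosphorylated the fluorescein-tagged ERM-derived LRRKtide in the presence of ATP and compound dilutions over 60 min at room temperature; quench contained 10 mM EDTA and 2 nM anti-pERM antibody (final).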

LRRK2 WT = target: T2, LRRK2 WT (Homo sapiens, UniProt Q5S007); test: LRRK2 Kinase Activity Assay (LanthaScreen TR-FRET), wild type; assay type: biochemical; details: recombinant wild type LRRK2, 25 μM ATP, 400 nM LRRKtide, 60 min; class symbols
T2 construct: purchased Life Technologies PR8604B
Method in brief: as §1

T2 sequence (Q5S007 whole entry): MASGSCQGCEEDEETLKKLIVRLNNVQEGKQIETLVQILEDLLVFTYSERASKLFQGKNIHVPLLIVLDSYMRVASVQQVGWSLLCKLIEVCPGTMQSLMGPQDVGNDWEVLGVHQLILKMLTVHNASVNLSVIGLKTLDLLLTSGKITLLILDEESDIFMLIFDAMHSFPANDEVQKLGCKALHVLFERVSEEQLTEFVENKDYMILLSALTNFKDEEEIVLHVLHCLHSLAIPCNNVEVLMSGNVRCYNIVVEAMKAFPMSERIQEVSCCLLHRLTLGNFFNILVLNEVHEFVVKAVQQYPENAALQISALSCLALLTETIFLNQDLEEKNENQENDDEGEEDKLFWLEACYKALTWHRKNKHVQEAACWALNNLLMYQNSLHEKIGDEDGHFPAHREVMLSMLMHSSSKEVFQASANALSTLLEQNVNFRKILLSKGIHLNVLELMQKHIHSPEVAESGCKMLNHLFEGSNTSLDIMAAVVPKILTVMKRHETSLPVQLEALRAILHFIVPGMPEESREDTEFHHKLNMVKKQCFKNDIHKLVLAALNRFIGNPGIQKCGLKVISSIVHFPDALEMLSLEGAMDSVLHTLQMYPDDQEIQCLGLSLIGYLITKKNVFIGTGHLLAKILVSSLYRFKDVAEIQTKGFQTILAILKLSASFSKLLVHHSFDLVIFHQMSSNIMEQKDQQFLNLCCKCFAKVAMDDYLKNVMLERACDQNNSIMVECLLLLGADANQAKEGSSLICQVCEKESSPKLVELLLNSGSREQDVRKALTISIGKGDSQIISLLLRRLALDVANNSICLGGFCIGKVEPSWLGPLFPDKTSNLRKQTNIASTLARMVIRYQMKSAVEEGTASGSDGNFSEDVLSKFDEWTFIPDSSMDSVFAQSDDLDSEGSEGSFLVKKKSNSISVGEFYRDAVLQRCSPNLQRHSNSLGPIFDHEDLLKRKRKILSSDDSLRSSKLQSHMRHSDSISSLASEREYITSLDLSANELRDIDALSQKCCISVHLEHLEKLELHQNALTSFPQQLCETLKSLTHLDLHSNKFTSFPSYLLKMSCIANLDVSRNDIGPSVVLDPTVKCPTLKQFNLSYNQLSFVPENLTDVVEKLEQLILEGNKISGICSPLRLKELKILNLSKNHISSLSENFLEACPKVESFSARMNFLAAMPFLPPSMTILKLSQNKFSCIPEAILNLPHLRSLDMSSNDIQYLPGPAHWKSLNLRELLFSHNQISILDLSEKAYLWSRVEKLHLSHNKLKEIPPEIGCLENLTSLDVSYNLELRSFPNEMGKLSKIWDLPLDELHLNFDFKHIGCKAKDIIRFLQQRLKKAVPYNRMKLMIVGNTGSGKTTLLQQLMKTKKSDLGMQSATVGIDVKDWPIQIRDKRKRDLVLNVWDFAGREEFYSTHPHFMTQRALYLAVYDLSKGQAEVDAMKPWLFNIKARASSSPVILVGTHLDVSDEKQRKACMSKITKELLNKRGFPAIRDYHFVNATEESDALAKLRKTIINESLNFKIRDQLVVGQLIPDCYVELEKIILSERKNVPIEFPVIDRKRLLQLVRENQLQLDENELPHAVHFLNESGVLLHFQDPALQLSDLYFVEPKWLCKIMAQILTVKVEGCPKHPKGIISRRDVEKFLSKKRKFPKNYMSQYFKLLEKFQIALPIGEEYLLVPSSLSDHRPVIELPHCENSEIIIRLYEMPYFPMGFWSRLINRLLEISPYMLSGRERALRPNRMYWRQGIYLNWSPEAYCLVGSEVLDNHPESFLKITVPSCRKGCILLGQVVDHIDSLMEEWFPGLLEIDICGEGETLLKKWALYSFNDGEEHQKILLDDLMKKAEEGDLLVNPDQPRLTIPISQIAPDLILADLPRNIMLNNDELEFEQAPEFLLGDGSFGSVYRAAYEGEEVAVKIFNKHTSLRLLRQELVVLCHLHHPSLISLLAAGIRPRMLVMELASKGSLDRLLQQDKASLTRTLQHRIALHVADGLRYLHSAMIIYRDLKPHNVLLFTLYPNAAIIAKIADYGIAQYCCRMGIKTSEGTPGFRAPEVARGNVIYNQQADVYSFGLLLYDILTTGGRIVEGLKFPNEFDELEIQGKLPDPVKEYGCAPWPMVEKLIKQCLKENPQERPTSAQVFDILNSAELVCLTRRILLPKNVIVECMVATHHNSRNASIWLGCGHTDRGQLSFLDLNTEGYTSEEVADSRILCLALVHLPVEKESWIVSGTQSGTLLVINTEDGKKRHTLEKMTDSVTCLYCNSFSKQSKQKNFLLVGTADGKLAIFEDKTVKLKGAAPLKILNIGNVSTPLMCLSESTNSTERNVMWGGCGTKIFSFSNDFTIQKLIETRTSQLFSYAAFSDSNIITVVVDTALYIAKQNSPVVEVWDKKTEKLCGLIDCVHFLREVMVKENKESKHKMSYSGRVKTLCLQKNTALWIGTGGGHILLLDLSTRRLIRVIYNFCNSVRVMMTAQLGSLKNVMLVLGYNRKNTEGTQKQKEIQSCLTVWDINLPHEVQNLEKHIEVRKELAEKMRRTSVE
T1 sequence (Q5S007 whole entry G2019S): as the sequence (Q5S007 whole entry) above, with G2019S counted along it

IC50 (LRRK2 G2019S) [nM]	IC50 (LRRK2 WT) [nM]	SMILES
< 100	100 to 1000	CC1(C)C[C@H](Nc2ccc3[nH]nc(-c4cnco4)c3c2)c2ccc(C#N)cc21 (single isomer, unassigned) [Example 105, enantiomer 1, 3,3-Dimethyl-1-((3-(oxazol-5-yl)-1H-indazol-5-yl)amino)-2,3-dihydro-1H-indene-5-carbonitrile]
< 100	100 to 1000	CC1(C)C[C@H](Nc2ccc3[nH]nc(-c4cnco4)c3c2)c2ccc(C#N)cc21 (single isomer, unassigned) [Example 105, enantiomer 2, 3,3-Dimethyl-1-((3-(oxazol-5-yl)-1H-indazol-5-yl)amino)-2,3-dihydro-1H-indene-5-carbonitrile]
< 100	100 to 1000	Cc1nc2c(cc1C#N)CCC[C@@H]2Nc1ccc2[nH]nc(-c3cnco3)c2c1 (single isomer, unassigned) [Example 106, enantiomer 1, 2-Methyl-8-((3-(oxazol-5-yl)-1H-indazol-5-yl)amino)-5,6,7,8-tetrahydroquinoline-3-carbonitrile]
< 100	< 100	Cc1c(C#N)cnc2c1CC[C@@H]2Oc1ccc2[nH]nc(-c3cnco3)c2c1 (single isomer, unassigned) [Example 107, enantiomer 1, 4-Methyl-7-((3-(oxazol-5-yl)-1H-indazol-5-yl)oxy)-6,7-dihydro-5H-cyclopenta[b]pyridine-3-carbonitrile]
< 100	100 to 1000	Cc1c(C#N)cnc2c1CC[C@@H]2Oc1ccc2[nH]nc(-c3cnco3)c2c1 (single isomer, unassigned) [Example 107, enantiomer 2, 4-Methyl-7-((3-(oxazol-5-yl)-1H-indazol-5-yl)oxy)-6,7-dihydro-5H-cyclopenta[b]pyridine-3-carbonitrile]
< 100	100 to 1000	Cc1c(C#N)cnc2c1CC[C@@H]2Nc1ccc2[nH]nc(-c3cnco3)c2c1 (single isomer, unassigned) [Example 108, enantiomer 1, 4-Methyl-7-((3-(oxazol-5-yl)-1H-indazol-5-yl)amino)-6,7-dihydro-5H-cyclopenta[b]pyridine-3-carbonitrile]
< 100	< 100	N#Cc1cnc2c(c1)CC[C@@H]2Nc1ccc2[nH]nc(-c3cnco3)c2c1 (single isomer, unassigned) [Example 109, enantiomer 1, 7-((3-(Oxazol-5-yl)-1H-indazol-5-yl)amino)-6,7-dihydro-5H-cyclopenta[b]pyridine-3-carbonitrile]
< 100	100 to 1000	N#Cc1cnc2c(c1)CC[C@@H]2Nc1ccc2[nH]nc(-c3cnco3)c2c1 (single isomer, unassigned) [Example 109, enantiomer 2, 7-((3-(Oxazol-5-yl)-1H-indazol-5-yl)amino)-6,7-dihydro-5H-cyclopenta[b]pyridine-3-carbonitrile]
< 100	< 100	Cc1cc2c(cc1C#N)CCC[C@@H]2Nc1ccc2[nH]nc(-c3cnco3)c2c1 (single isomer, unassigned) [Example 110, enantiomer 1, 3-Methyl-5-((3-(oxazol-5-yl)-1H-indazol-5-yl)amino)-5,6,7,8-tetrahydronaphthalene-2-carbonitrile]
< 100	100 to 1000	Cc1cc2c(cc1C#N)CCC[C@@H]2Nc1ccc2[nH]nc(-c3cnco3)c2c1 (single isomer, unassigned) [Example 110, enantiomer 2, 3-Methyl-5-((3-(oxazol-5-yl)-1H-indazol-5-yl)amino)-5,6,7,8-tetrahydronaphthalene-2-carbonitrile]
< 100	< 100	CN(c1ccc2[nH]nc(-c3cnco3)c2c1)[C@H]1CCc2cc(C#N)ccc21 (single isomer, unassigned) [Example 111, enantiomer 1, 1-(Methyl(3-(oxazol-5-yl)-1H-indazol-5-yl)amino)-2,3-dihydro-1H-indene-5-carbonitrile]
< 100	100 to 1000	CN(c1ccc2[nH]nc(-c3cnco3)c2c1)[C@H]1CCc2cc(C#N)ccc21 (single isomer, unassigned) [Example 111, enantiomer 2, 1-(Methyl(3-(oxazol-5-yl)-1H-indazol-5-yl)amino)-2,3-dihydro-1H-indene-5-carbonitrile]
< 100	100 to 1000	N#Cc1cc2c(nc1Cl)[C@@H](Nc1ccc3[nH]nc(-c4cnco4)c3c1)CCC2 (single isomer, unassigned) [Example 112, enantiomer 1, 2-Chloro-8-((3-(oxazol-5-yl)-1H-indazol-5-yl)amino)-5,6,7,8-tetrahydroquinoline-3-carbonitrile]
< 100	< 100	COc1c(C#N)ccc2c1CC[C@@H]2Nc1ccc2[nH]nc(-c3cnco3)c2c1 (single isomer, unassigned) [Example 113, enantiomer 1, 4-Methoxy-1-((3-(oxazol-5-yl)-1H-indazol-5-yl)amino)-2,3-dihydro-1H-indene-5-carbonitrile]
100 to 1000	100 to 1000	COc1cc2c(cc1C#N)CCC[C@@H]2Nc1ccc2[nH]nc(-c3cnoc3)c2c1 (single isomer, unassigned) [Example 114, enantiomer 1, 5-((3-(Isoxazol-4-yl)-1H-indazol-5-yl)amino)-3-methoxy-5,6,7,8-tetrahydronaphthalene-2-carbonitrile]
< 100	< 100	COc1cc2c(cc1C#N)CCC[C@@H]2Nc1ccc2[nH]nc(-c3cnoc3)c2c1 (single isomer, unassigned) [Example 114, enantiomer 2, 5-((3-(Isoxazol-4-yl)-1H-indazol-5-yl)amino)-3-methoxy-5,6,7,8-tetrahydronaphthalene-2-carbonitrile]
< 100	100 to 1000	CC1(C)CC[C@H](Nc2ccc3[nH]nc(-c4cnco4)c3c2)c2ccc(C#N)cc21 (single isomer, unassigned) [Example 115, enantiomer 1, 8,8-Dimethyl-5-((3-(oxazol-5-yl)-1H-indazol-5-yl)amino)-5,6,7,8-tetrahydronaphthalene-2-carbonitrile]
< 100	100 to 1000	CC1(C)CC[C@H](Nc2ccc3[nH]nc(-c4cnco4)c3c2)c2ccc(C#N)cc21 (single isomer, unassigned) [Example 115, enantiomer 2, 8,8-Dimethyl-5-((3-(oxazol-5-yl)-1H-indazol-5-yl)amino)-5,6,7,8-tetrahydronaphthalene-2-carbonitrile]
< 100	< 100	CCc1cc(-c2n[nH]c3ccc(N[C@H]4CCCc5cc(C#N)ccc54)cc23)ccn1 (single isomer, unassigned) [Example 116, enantiomer 1, 5-((3-(2-Ethylpyridin-4-yl)-1H-indazol-5-yl)amino)-5,6,7,8-tetrahydronaphthalene-2-carbonitrile]
< 100	< 100	Cc1c(C#N)ccc2c1CC[C@H]2Nc1ccc2[nH]nc(-c3cnoc3)c2c1 (single isomer, unassigned) [Example 118, enantiomer 1, 1-((3-(Isoxazol-4-yl)-1H-indazol-5-yl)amino)-4-methyl-2,3-dihydro-1H-indene-5-carbonitrile]
